Measured values as given in PubChem BioAssay AID1259407 (Chemical Carcinogenesis Research Information System (CCRIS), 2018).
Active and inactive are the calls of the source. No rule for the calls is given here.

System: CCRIS mutagenicity, Ames/micronucleus/aberration tests
Test: CCRIS mutagenicity studies
[1] = Test System: AMES SALMONELLA TYPHIMURIUM, Strain/Indicator: TA98, Metabolic Activation: NONE, Method: STANDARD PLATE
[2] = Test System: AMES SALMONELLA TYPHIMURIUM, Strain/Indicator: TA100, Metabolic Activation: NONE, Method: STANDARD PLATE
[3] = Test System: AMES SALMONELLA TYPHIMURIUM, Strain/Indicator: TA100, Metabolic Activation: RAT, LIVER, S-9, AROCLOR 1254, Method: STANDARD PLATE
[4] = Test System: AMES SALMONELLA TYPHIMURIUM, Strain/Indicator: TA1538, Metabolic Activation: NONE, Method: STANDARD PLATE

SMILES: Nc1ccc(S(=O)(=O)Nc2nccs2)cc1
- mutagenic call (Test System: AMES SALMONELLA TYPHIMURIUM, Strain/Indicator: TA98, Metabolic Activation: HAMSTER, LIVER, S-9, AROCLOR 1254, Method: STANDARD PLATE): inactive; negative
- mutagenic call [1]: inactive; negative
- mutagenic call (Test System: AMES SALMONELLA TYPHIMURIUM, Strain/Indicator: TA98, Metabolic Activation: RAT, LIVER, S-9, AROCLOR 1254, Method: STANDARD PLATE): inactive; negative
- mutagenic call (Test System: AMES SALMONELLA TYPHIMURIUM, Strain/Indicator: TA100, Metabolic Activation: HAMSTER, LIVER, S-9, AROCLOR 1254, Method: STANDARD PLATE): inactive; negative
- mutagenic call [2]: inactive; negative
- mutagenic call [3]: inactive; negative
- mutagenic call (Test System: AMES SALMONELLA TYPHIMURIUM, Strain/Indicator: TA1535, Metabolic Activation: HAMSTER, LIVER, S-9, AROCLOR 1254, Method: STANDARD PLATE): inactive; negative
- mutagenic call (Test System: AMES SALMONELLA TYPHIMURIUM, Strain/Indicator: TA1535, Metabolic Activation: NONE, Method: STANDARD PLATE): inactive; negative
- mutagenic call (Test System: AMES SALMONELLA TYPHIMURIUM, Strain/Indicator: TA1535, Metabolic Activation: RAT, LIVER, S-9, AROCLOR 1254, Method: STANDARD PLATE): inactive; negative
- mutagenic call (Test System: AMES SALMONELLA TYPHIMURIUM, Strain/Indicator: TA1537, Metabolic Activation: HAMSTER, LIVER, S-9, AROCLOR 1254, Method: STANDARD PLATE): inactive; negative
- mutagenic call (Test System: AMES SALMONELLA TYPHIMURIUM, Strain/Indicator: TA1537, Metabolic Activation: NONE, Method: STANDARD PLATE): inactive; negative
- mutagenic call (Test System: AMES SALMONELLA TYPHIMURIUM, Strain/Indicator: TA1537, Metabolic Activation: RAT, LIVER, S-9, AROCLOR 1254, Method: STANDARD PLATE): inactive; negative
- mutagenic call (Test System: AMES SALMONELLA TYPHIMURIUM, Strain/Indicator: TA1538, Metabolic Activation: HAMSTER, LIVER, S-9, AROCLOR 1254, Method: STANDARD PLATE): inactive; negative
- mutagenic call [4]: inactive; negative
- mutagenic call (Test System: AMES SALMONELLA TYPHIMURIUM, Strain/Indicator: TA1538, Metabolic Activation: RAT, LIVER, S-9, AROCLOR 1254, Method: STANDARD PLATE): inactive; negative
- mutagenic call (Test System: MOUSE LYMPHOMA, Strain/Indicator: L5178Y (TK+/TK-), Metabolic Activation: NONE, Method: SUSPENSION/PLATE): inactive; negative. reevaluation of results: negative
- mutagenic call (Test System: MOUSE LYMPHOMA, Strain/Indicator: L5178Y (TK+/TK-), Metabolic Activation: RAT, LIVER, S-9, AROCLOR 1254, Method: SUSPENSION/PLATE): inactive; negative. reevaluation of results: negative

SMILES: CCCCCOc1ccc(N=O)cc1
- mutagenic call [2]: active; positive

SMILES: O=Nc1ccc2ccccc2c1
- mutagenic call [1]: active; positive
- mutagenic call (Test System: AMES SALMONELLA TYPHIMURIUM, Strain/Indicator: TA98, Metabolic Activation: S-9, Method: STANDARD PLATE): active; positive
- mutagenic call [2]: active; positive
- mutagenic call (Test System: AMES SALMONELLA TYPHIMURIUM, Strain/Indicator: TA100, Metabolic Activation: S-9, Method: STANDARD PLATE): active; positive
- mutagenic call [4]: active; positive

SMILES: O=C1C(=O)c2c(ccc3ccccc23)-c2ccccc21
- mutagenic call [1]: inactive; negative
- mutagenic call [3]: inactive; negative

SMILES: C=CCSSCCC
- mutagenic call (Test System: AMES SALMONELLA TYPHIMURIUM, Strain/Indicator: TA97, Metabolic Activation: HAMSTER, LIVER, S-9, AROCLOR 1254 (10 OR 30%), Method: PREINCUBATION): inactive; negative
- mutagenic call (Test System: AMES SALMONELLA TYPHIMURIUM, Strain/Indicator: TA97, Metabolic Activation: NONE, Method: PREINCUBATION): inactive; negative
- mutagenic call (Test System: AMES SALMONELLA TYPHIMURIUM, Strain/Indicator: TA97, Metabolic Activation: RAT, LIVER, S-9, AROCLOR 1254 (10 OR 30%), Method: PREINCUBATION): inactive; negative
- mutagenic call (Test System: AMES SALMONELLA TYPHIMURIUM, Strain/Indicator: TA98, Metabolic Activation: HAMSTER, LIVER, S-9, AROCLOR 1254 (10 OR 30%), Method: PREINCUBATION): inactive; negative
- mutagenic call (Test System: AMES SALMONELLA TYPHIMURIUM, Strain/Indicator: TA98, Metabolic Activation: NONE, Method: PREINCUBATION): inactive; negative
- mutagenic call (Test System: AMES SALMONELLA TYPHIMURIUM, Strain/Indicator: TA98, Metabolic Activation: RAT, LIVER, S-9, AROCLOR 1254 (10 OR 30%), Method: PREINCUBATION): inactive; negative
- mutagenic call (Test System: AMES SALMONELLA TYPHIMURIUM, Strain/Indicator: TA100, Metabolic Activation: HAMSTER, LIVER, S-9, AROCLOR 1254 (10 OR 30%), Method: PREINCUBATION): inactive; negative
- mutagenic call (Test System: AMES SALMONELLA TYPHIMURIUM, Strain/Indicator: TA100, Metabolic Activation: NONE, Method: PREINCUBATION): inactive; negative
- mutagenic call (Test System: AMES SALMONELLA TYPHIMURIUM, Strain/Indicator: TA100, Metabolic Activation: RAT, LIVER, S-9, AROCLOR 1254 (10 OR 30%), Method: PREINCUBATION): inactive; negative
- mutagenic call (Test System: AMES SALMONELLA TYPHIMURIUM, Strain/Indicator: TA1535, Metabolic Activation: HAMSTER, LIVER, S-9, AROCLOR 1254 (10 OR 30%), Method: PREINCUBATION): inactive; negative
- mutagenic call (Test System: AMES SALMONELLA TYPHIMURIUM, Strain/Indicator: TA1535, Metabolic Activation: NONE, Method: PREINCUBATION): inactive; negative
- mutagenic call (Test System: AMES SALMONELLA TYPHIMURIUM, Strain/Indicator: TA1535, Metabolic Activation: RAT, LIVER, S-9, AROCLOR 1254 (10 OR 30%), Method: PREINCUBATION): inactive; negative

SMILES: N=C1C=CC2=CC(S(=O)(=O)O)=CC(=O)C2=C1NNc1ccc(-c2ccc(N=Nc3cc(S(=O)(=O)O)c4ccccc4c3N)cc2)cc1
- mutagenic call (Test System: AMES SALMONELLA TYPHIMURIUM, Strain/Indicator: TA98, Metabolic Activation: HAMSTER, LIVER, S-9, Method: PREINCUBATION (PRIVAL METHOD)): active; positive
